Values of other authors, collected in US8329227B2, “Compositions for improving mental performance” (Factor Nutrition Labs, LLC, priority 2001, dated 2012).

Experiments:
[1] = 200 micrograms in four divided doses, fifty patients; placebo thirty-six percent
[2] = healthy volunteers aged 25-40
[3] = high or low dose versus placebo, 203 patients
[4] = PS supplementation

C/C=C1\[C@H]2C=C(C)C[C@]1(N)c1ccc(=O)[nH]c1C2 [huperzine A, Huperzine A]
people with improvements in memory, cognitive function and behavior [1]: Fifty-eight

CCOC(=O)C1=C[C@]2(CC)CCCN3CCc4c(n1c1ccccc41)[C@@H]32 [vinpocetine]
memory (Steinberg Memory Test) [2]: significant memory improvement
cognitive performance and overall quality of life [3]: Significantly greater improvements
patients with reduced frequency or complete elimination of epileptic seizures (epileptic patients): twenty of the thirty-one
tolerability in clinical studies (human, in vivo): well tolerated

phosphatidyl serine [PS]
improvement in learning ability and memory tasks [4]: 15%
